Where a name gives a salt, the structure may show the parent alone. Read-outs that look alike come from different tables or passages of the source.
Test system: human basophils
Assay: Inhibition of histamine release from immunologically stimulated human basophils
Format: cell-based
Conditions: concentration causing 50% inhibition of histamine release, by linear regression, active if IC50 ≦ 48 µM
Protocol: The blood is allowed to sediment at room temperature in two 50 ml polycarbonate centrifuge tubes until a sharp interface develops between the red cells and plasma (60-90 minutes). The plasma (top) layer from each tube is withdrawn by pipet and transferred to respective 50 ml polycarbonate tubes. The plasma is centrifuged for 8 minutes at 110X G at 4°C. The supernatant is carefully poured off as completely as possible and the cell button is resuspended in 2-3 ml of Tris-A buffer using a siliconized Pasteur pipet. The resuspension is accomplished by drawing the liquid gently in an out of the pipet, with the tip below the liquid until an even suspension of cells is obtained. Sufficient Tris-A buffer is then added to bring the volume in the tube to about 45 ml and the tube is centrifuged at 110X G for 8 minutes at 4°C. The supernatant is poured off and the cell button is resuspended and centrifuged as described above. The supernatant is poured off and the cell button is suspended in 2-3 ml of Tris-ACM buffer to make the final volume sufficient to allow addition to the reaction tubes. Reaction tubes containing anti-IgE or antigens, either alone or with test compound in a total volume of 0.2 ml are prepared and placed in a 37°C bath. The cells are warmed to 37°C and frequently swirled to ensure an even suspension, while 1.0 ml aliquots are added to each reaction tube. The tubes are then incubated for 60 minutes at 37°C, vortexing the tubes gently every 15 minutes to keep the cells evenly suspended. When the reaction is complete, the tubes are centrifuged at 4°C for 10 minutes at 1500 rpm to sediment the cells. […] Blanks and totals are included in each test. The blanks have cells and all reagents except antigen or anti-IgE. The totals contain 0.24 ml of 8% perchloric acid, one ml of cells and 0.2 ml of buffer. All samples are then centrifuged to remove the precipitate protein. […] The automated system consists of the following Technicon Autoanalyzer II components Sampler IV, Dual-Speed Proportioning Pump III, Fluoronephelometer with a narrow pass primary filter 7-60 and a secondary filter 3-74, Recorder, and Digital Printer. The manifold used is the one described by Siraganian vide supra, with the following modifications: the dialyzer is omitted; all pumping tubes pass through a single proportioning pump with large capacity and twice the volume of sample is taken for anaylsis. The automated chemistry consists of the following steps: Extraction from alkaline saline into butanol, back extraction into dilute hydrochloric acid by addition of heptane, reaction of histamine with o-phthaldialdehyde (OPT) at high pH and conversion of the OPT adduct to a stable fluorophore with phosphoric acid. The reaction product is then passed through the fluorometer. The full scale response is adjusted to 50 ng histamine base with a threshold sensitivity of approximately 0.5 ng. The instrument blank (wash) is substracted from the ng histamine of each sample. Then the ng histamine of each sample is divided by the mean of the three totals (cells lysed with perchloric acid) to obtain percent release. Control samples contain antigen but no test compound. Blank (or spontaneous release) samples contain neither antigen nor test compound. The mean of the blanks (three replicates) is subtracted from the percent release for controls and test compounds.

SMILES | IC50 (Homo sapiens, read-out: IC50) [nM] | further results
CC(=O)Nc1ccc(Nc2nccc(-c3ccc(C)s3)n2)cc1 [N-[4-[[4-(5-Methyl-2-thienyl)-2-pyrimidinyl]amino]phenyl]acetamide] | 300 | –
CNc1ccc(Nc2nccc(-c3cccnc3)n2)cc1 [N-Methyl-N'-[4-(3-pyridinyl)-2-pyrimidinyl]-1,4-benzenediamine] | 2100 | –
CC(C)(C)c1ccc(Nc2nccc(-c3cccs3)n2)cc1 [N-[4-(1,1-Dimethylethyl)phenyl]-4-(2-thienyl)-2-pyrimidinamine] | 4600 | –
c1ccc(-c2ccnc(NC3CCCC3)n2)nc1 [N-Cyclopentyl-4-(2-pyridinyl)-2-pyrimidinamine] | 2200 | –
Cc1ccsc1-c1ccnc(Nc2ccc(N(C)C)cc2)n1 [N,N-Dimethyl-N'-[4-(3-methyl-2-thienyl)-2-pyrimidinyl]-1,4-benzenediamine] | 1800 | –
COc1ccc(Nc2nccc(-c3ccccn3)n2)cc1 [N-(4-Methoxyphenyl)-4-(2-pyridinyl)-2-pyrimidinamine] | 8300 | –
CC(C)N(CCOc1ccc(Nc2nccc(-c3cccnc3)n2)cc1)C(C)C [N-[4-[2-[bis(1-Methylethyl)amino]ethoxy]phenyl]-4-(3-pyridinyl)-2-pyrimidinamine] | 4600 | –
COc1ccc(Nc2nccc(-c3ccsc3)n2)cc1 [N-(4-Methoxyphenyl)-4-(3-thienyl)-2-pyrimidinamine] | 15600 | –
CN(C)c1cccc(Nc2nccc(-c3ccncc3)n2)c1 [N,N-Dimethyl-N'-[4-(4-pyridinyl)-2-pyrimidinyl]-1,3-benzened] [N,N-Dimethyl-N'-[4-(4-pyridinyl)-2-pyrimidinyl]-1,3-benzenediamine] | – | IC50 (read-out: IC50): 3500 nM
CCOC(=O)c1cccc(Nc2nccc(-c3cccnc3)n2)c1 [3-[[4-(3-Pyridinyl)-2-pyrimidinyl]amino]benzoic acid, ethyl ester] | 20300 | –
CC(=O)N(C)c1ccc(Nc2nccc(-c3ccncc3)n2)cc1 [N-Methyl-N-[4-[[4-(4-pyridinyl)-2-pyrimidinyl]amino]phenyl]acetamide] | 100 | –
NS(=O)(=O)c1cccc(Nc2nccc(-c3ccccn3)n2)c1 [3-[[4-(2-Pyridinyl)-2-pyrimidinyl]amino]benzenesulfonamide] | 700 | –
Fc1cccc(Nc2nccc(-c3ccccn3)n2)c1 [N-(3-Fluorophenyl)-4-(2-pyridinyl)-2-pyrimidinamine] | 900 | –
CCc1cccc(Nc2nccc(-c3ccncc3)n2)c1 [N-(3-Ethylphenyl)-4-(4-pyridinyl)-2-pyrimidinamine] | 10600 | –
c1cncc(-c2ccnc(Nc3ccc(-n4ccnc4)cc3)n2)c1 [N-[4-(1H-Imidazol-1-yl)phenyl]-4-(3-pyridinyl)-2-pyrimidinamine] | 1300 | –
Cc1cc(C)cc(Nc2nccc(-c3cccnc3)n2)c1 [N-(3,5-Dimethylphenyl)-4-(3-pyridinyl)-2-pyrimidinamine, sulfate] | – | IC50 (Homo sapiens): 3000 nM
Fc1cccc(Nc2nccc(-c3ccncc3)n2)c1 [N-(3-Fluorophenyl)-4-(4-pyridinyl)-2-pyrimidinamine] | 700 | –
CN(C)c1ccc(Nc2nccc(-c3cccnc3)n2)cc1 [N,N-Dimethyl-N'-[4-(3-pyridinyl)-2-pyrimidinyl]-1,4-benzenediamine] | – | IC50 (read-out: IC50): 3700 nM
CCN(CC)c1ccc(Nc2nccc(-c3ccco3)n2)cc1 [N,N-Diethyl-N'-[4-(2-furanyl)-2-pyrimidinyl]-1,4-benzenediamine] | 3400 | –
Cc1cccc(Nc2nccc(-c3ccncc3)n2)c1C [N-(2,3-Dimethylphenyl)-4-(4-pyridinyl)-2-pyrimidinamine] | 20200 | –
CCN(CC)c1ccc(Nc2nccc(-c3ccc(C)o3)n2)cc1 [N,N-Diethyl-N'-[4-(5-methyl-2-fur-anyl)-2-pyrimidinyl]-1,4-benzene-diamine] | 28000 | –
Cc1cccc(Nc2nccc(-c3cc4ccccc4[nH]3)n2)c1 [4-(1H-Indol-2-yl)-N-(3-methylphenyl)-2-pyrimidinamine] | 2200 | –
CN(C)c1ccccc1Nc1nccc(-c2ccncc2)n1 [N,N-Dimethyl-N'-[4-(4-pyridinyl)-2-pyrimidinyl]-1,2-benzenediamine, fumarate] | 36200 | –

SMILES | IC50 (Homo sapiens, read-out: IC50) [nM] | further results
CON=C(C)c1ccc(Nc2nccc(-c3cccnc3)n2)cc1 [1-[4-[[4-(3-Pyridinyl)-2-pyrimidinyl]amino]phenyl]ethanone, O-methyloxime] | 5100 | –
COc1cccc(Nc2nccc(-c3ccccn3)n2)c1 [N-(3-Methoxyphenyl)-4-(2-pyridinyl)-2-pyrimidinamine] | 200 | –
CC(=O)c1ccc(Nc2nccc(-c3cccnc3)n2)cc1 [N-(4-Acetylphenyl)-4-(3-pyridinyl)-2-pyrimidinamine] | 800 | –
COc1ccccc1Nc1nccc(-c2cccnc2)n1 [N-(2-Methoxyphenyl)-4-(3-pyridinyl)-2-pyrimidinamine] | 9800 | –
Clc1cccc(Nc2nccc(-c3ccccn3)n2)c1 [N-(3-Chlorophenyl)-4-(2-pyridinyl)-2-pyrimidinamine] | 1300 | –
Cc1cccc(Nc2nccc(-c3ccc(C)s3)n2)c1 [N-(3-Methylphenyl)-4-(5-methyl-2-thienyl)-2-pyrimidinamine] | 1400 | –
CN(C)c1ccc(Nc2nccc(-c3cc4ccccc4o3)n2)cc1 [N'-[4-(2-Benzofuranyl)-2-pyrimidinyl]-N,N-dimethyl-1,4-benzenediamine] | 5600 | –
Nc1ccc(Nc2nccc(-c3ccncc3)n2)cc1 [N-[4-(4-Pyridinyl)-2-pyrimidinyl]-1,4-benzenediamine, hydrochloride] | 3000 | –
CC(=O)Nc1ccc(Nc2nccc(-c3cccnc3)n2)cc1C | 1800 | –
CN(C)c1ccc(Nc2nccc(-c3cccs3)n2)cc1 [N,N-Dimethyl-N'-[4-(2-thienyl)-2-pyrimidinyl]-1,4-benzenediamine] | 600 | –
Cc1cccc(Nc2nccc(-c3cnccn3)n2)c1 [N-(3-Methylphenyl)-4-pyrazinyl-2-pyrimidinamine] | 5400 | –
CCc1ccc(Nc2nccc(-c3ccc(C)nc3)n2)cc1 [N-(4-Ethylphenyl)-4-(6-methyl-3-pyridinyl)-2-pyrimidinamine] | 13400 | –
Cc1ccc(CNc2nccc(-c3ccccn3)n2)cc1C [N-[(3,4-Dimethylphenyl)methyl]-4-(2-pyridinyl)-2-pyrimidinamine] | 39800 | –
Fc1ccc(Nc2nccc(-c3ccco3)n2)cc1 [N-(4-Fluorophenyl)-4-(2-furanyl)-2-pyrimidinamine] | 13300 | –
COc1cccc(Nc2nccc(-c3ccsc3)n2)c1 [N-(3-Methoxyphenyl)-4-(3-thienyl)-2-pyrimidinamine] | 1700 | –
Cc1ccc(C)c(Nc2nccc(-c3ccccn3)n2)c1 [N-(2,5-Dimethylphenyl)-4-(2-pyridinyl)-2-pyrimidinamine] | < 48000 | –
COc1cccc(Nc2nccc(-c3ccncc3)n2)c1 [N-(3-Methoxyphenyl)-4-(4-pyridinyl)-2-pyrimidinamine] | 400 | –
Cc1cnc(Nc2cccc(N(C)C)c2)nc1-c1ccco1 [N,N-Dimethyl-N'-[4-(2-furanyl)-5-methyl-2-pyrimidinyl]-1,3-benzene-diamine] | 40000 | –
CN(C)CCOc1ccc(Nc2nccc(-c3ccncc3)n2)cc1 [N-[4-[2-(Dimethylamino)ethoxy]phenyl]-4-(4-pyridinyl)-2-pyrimidinamine] | 1500 | –
Cc1cccc(Nc2nccc(-c3ccco3)n2)c1 [4-(2-Furanyl)-N-(3-methylphenyl)-2-pyrimidinamine] | 3500 | –
CC(N)c1cccc(Nc2nccc(-c3cccnc3)n2)c1 (stereo not shown) [N-[3-(1-Aminoethyl)phenyl)-4-(3-pyridinyl)-2-pyrimidinanine, trihydrochloride] | 5100 | –
CCOC(=O)C(=O)N(c1ccccc1)c1nccc(-c2ccncc2)n1 [Oxo[phenyl[4-(4-pyridinyl)-2-pyrimidinyl]amino]acetic acid, ethyl ester] | 2100 | –
CC(N)c1ccc(Nc2nccc(-c3cccnc3)n2)cc1 (stereo not shown) [N-[4-[1-Aminoethyl)phenyl]-4-(3-pyridinyl)-2-pyrimidinamine, trihydrochloride] | 800 | –

Reference: patent EP0233461B2, “4,5,6-Substituted-2-pyrimidinamines” (AMERICAN CYANAMID COMPANY, priority 1986, dated 1987)
